Measurements from US20030175824A1, “Drug candidate screening systems based on micropatterned hydrogels and microfluidic systems” (priority 2002, published 2003).

Tested on: murine 3T3 fibroblasts
Conditions: 0.05% sodium azide in PBS; cells stained red
Experimental: Hydrogel microstructures encapsulating murine 3T3 fibroblasts were fabricated using proximity photolithography. A PEG-diacrylate (PEG-DA, MW 575, Sigma-Aldrich or MW 4000, Polysciences) precursor solution containing 0.5% (w/w) DAROCUR 1173 (1-phenyl-2-hydroxy-2-methyl-1-propanone, Ciba Specialty Chemicals) as a photoinitiator was mixed with a cell suspension in cell culture media to produce a cell density about 4 to 5×10^6 cells/mL in the gel precursor solution. Fibroblasts were cultured on tissue culture polystyrene in Dulbecco's modified Eagle media (DMEM with 4.5 g/L glucose and 10% FBS, Sigma-Aldrich) and incubated at 37° C. in 5% CO2 and 95% air until near confluence. Cells were detached from culture flasks by trypsinization with 0.25% trypsin and 0.13% EDTA in phosphate buffered saline. Cells were transferred back to cell culture media and then added to the gel precursor solution. […]
The viability of individual cells in hydrogel microstructures with diameters of 600 μm and 50 μm was investigated using Live/Dead Viability/Cytotoxicity fluorescence assay (Molecular Probes, Inc.) that stains live cells green and dead cells red. […]
The viability of cells encapsulated in hydrogel was also measured using an MTT (3(4,5-dimethylthiazol-2-yl)-2,5-diphenyl tetrazolium bromide) assay.

Compound: [N-]=[N+]=[N-] [sodium azide]
- effect on encapsulated cells (control, LIVE/DEAD staining): killed the cells
